The subject of test [1] is A2Kb transgenic mice. In words: Induction of CTL immune response against C7A2-WT in A2Kb transgenic mice. Format: in vivo, mouse. The following applies: 50 nmol, E/T 120:1 for C7A2-WT, 70:1 for 8A. The source says:
FIG. 6. […] Two weeks later, mice were boosted under the same conditions and 10-14 days after the boost, spleen cells were removed and stimulated in vitro with 10 ΦM CTL peptide-pulsed spleen cells.

For another test, the target named is T1, HLA-A2.1 (Homo sapiens, UniProt P04439, D140Y/D185E/D98H/E176V/E277Q/G131W/G231S/I119V/I121R/I166T/I218V/L300P/L318F/N151K/N90K/P208A/P217A/Q86G/Q94H/R138H/R169H/T345S).
T1 construct: The T2 cell line is deficient in TAP1 and TAP2 transporter proteins and expresses low levels of HLA-A2.1; endogenous in cells; host or cells: T2 cell line (TAP1/TAP2-deficient)
Kind of test: T2 binding assay: peptide stabilisation of cell-surface HLA-A2.1 (flow cytometry, BB7.2). As to conditions: T2 cells; for FI0.5, the peptide concentration that increases HLA-A2.1 expression by 50% over no peptide control: overnight, with β2-microglobulin. The procedure: FIGS. 1A and 1B. Binding of C7A2 Alanine (A) and non-Alanine (B)-substituted peptides to TAP-deficient HLA-A2.1. T2 cells were incubated overnight in a 96 well plate in CTM with 10 Φg/ml human β2-microglobulin and different peptide concentrations. The next day, cells were washed and HLA-A2.1 expression was assessed by flow cytometry using the anti HLA-A2 BB7.2 monoclonal antibody and FITC labeled goat anti mouse Ig. Results are expressed as fluorescence index (FI), calculated according to the formula: (mean fluorescence with peptide−mean fluorescence without peptide)/mean fluorescence without peptide. Background fluorescence without BB7.2 was subtracted for each individual value. FI0.5 represents those peptide concentrations that increase HLA-A2.1 expression by 50% over the no peptide control and were calculated from the titration curves for each particular peptide.
Peptide binding to HLA molecules was measured using the T2 mutant cell line according to a protocol previously described (53). T2 cells (3×10/well) were incubated overnight in 96-well plates with culture medium (1:1 mixture of RPMI 1640: EHAA containing 2.5% FBS, 100 U/ml penicillin, 100 Φg/ml streptomycin) with 10 Φg/ml β2-microglobulin (Sigma Chemical Co; St. Louis, Mo.) and different peptide concentrations. The next day, cells were washed twice with cold PBS containing 2% FBS and incubated for 30 min at 4 EC with anti HLA-A2.1 BB7.2 monoclonal antibody (1/80 dilution from hybridoma supernatant) and 5 Φg/ml FITC-labeled goat anti mouse Ig (Pharmingen; San Diego, Calif.). Cells were washed twice after each incubation and HLA-A2.1 expression was measured by flow cytometry on a FACScan (Becton Dickinson). HLA-A2.1 expression was quantified as fluorescence index (FI) according to the formula: FI=(mean fluorescence with peptide—mean fluorescence without peptide)/mean fluorescence without peptide. Background fluorescence without BB7.2 antibody was subtracted for each individual value. In order to compare the different peptides, FI0.5, the peptide concentration that increases HLA-A2.1 expression by 50% over no peptide control background, was calculated from the titration curve for each peptide.
The binding affinity of wild-type C7A2 peptide (C7A2-WT) was evaluated with a T2 binding assay (53), which measures the cell surface stabilization of HLA-A2.1 molecules after incubation with peptide. In order to compare the different peptides, a fluorescence index value of 0.5 (FI0.5), the peptide concentration that increases HLA-A2.1 expression by 50%, was chosen as a way to compare titrations of the peptides and relative affinity for MHC molecules. Using this method, FI0.5 of 10 ΦM was calculated for C7A2-WT.

The test system of test [2] is AAD transgenic mice. Kind of test: Induction of CTL immune response against C7A2-WT in AAD transgenic mice. Format: in vivo, mouse. The following applies: 50 or 15 nmol CTL epitope; for CTL response to C7A2-WT after immunization: targets pulsed with C7A2-WT. The source says:
FIGS. 5A and 5B. […] Two weeks later, mice were boosted under the same conditions and 10-14 days after the boost, spleen cells were removed and stimulated in vitro with 10 ΦM CTL peptide-pulsed spleen cells.

Test [3] has as its system AAD transgenic mice. Kind of test: In vivo immunogenicity of C7A2-derived peptides in AAD transgenic mice (CTL assay). The following applies: 50 nmol CTL epitope plus helper epitope, GM-CSF, IL-12 in IFA; targets pulsed with immunizing peptide. Also on record: species or system mouse.
Another test deals with human CTL line ViT2. Kind of test: Recognition of C7A2-variant peptides by human CTL line ViT2 (51Cr release, C1R.A2.1 targets). The class given is cell-based. As to conditions: for Recognition by human CTL line (lysis of peptide-sensitized target cells): E/T 5/1, peptide titration.
For test [4], the system named is transgenic AAD mouse CTL lines AAD.10 and AAD.1. Kind of test: Recognition of C7A2-variant peptides by AAD transgenic mouse CTL lines (51Cr release, C1R.AAD targets). Format: cell-based. As to conditions: lines AAD.10 and AAD.1, C1R.AAD targets, E/T 10/1.
In test [5] the test system is A2Kb transgenic mice. The following applies: 50 nmol, targets with 10 ΦM peptide. The procedure:
(§1) FIGS. 8A and 8B. […] AAD (A) and A2Kb (B) transgenic mice were immunized with 50 nmol CTL epitope 8A plus 50 nmol HBVc 128-140 helper epitope in IFA. Two weeks later, mice were boosted under the same conditions and 10-14 days after the boost, spleen cells were removed and stimulated in vitro with 10 ΦM CTL peptide-pulsed spleen cells. After two weeks of in vitro stimulation, a CTL assay was performed with target cells (Con A blasts) incubated with the different peptides at 10 ΦM.
(§2) This peptide is common in viral isolates from HCV genotypes 2a and 2b (56,57).

Test [6] relates to AAD transgenic mice. As to conditions: 50 nmol, targets with 10 ΦM peptide. The procedure:
as §1, §2

The subject of test [7] is short term CTL lines from AAD transgenic mice. As to conditions: C1R.AAD targets titrated with C7A2-WT, E:T 10:1. The source says: FIG. 7. […] Two weeks later, mice were boosted under the same conditions and 10-14 days after the boost, spleen cells were removed and stimulated in vitro with 10 ΦM CTL peptide-pulsed spleen cells.

Entries after “also recorded” stand apart in the source; their conditions may differ.

As to “DLMGYIPLV [Peptide C7A2-WT, naturally occurring peptide at positions 132-140 in the HCV core polypeptide, reference compound]”, the “CTL immune response after immunization” value in the test with A2Kb transgenic mice [1] is “low response”. For the same substance, in the test with HLA-A2.1, the “FI0.5, the peptide concentration that increases HLA-A2.1 expression by 50% over no peptide control” value is 10 ΦM. Besides, the “CTL response to C7A2-WT after immunization” value with AAD transgenic mice [2] is listed as “two of the four animals”. The “Induction of CTL response by immunization” value with AAD transgenic mice [3] is listed as “able to induce clear CTL responses”.

With “8V: C7A2 peptide with position 8 L replaced by V; sequence common in HCV genotypes 2a and 2b (DLMGYIPVV) [Peptide 8V, reference compound]”, the “Recognition by human CTL line (lysis of peptide-sensitized target cells)” value in the test on human CTL line ViT2 is on record as “behaved similarly to C7A2-WT”. The “FI0.5, the peptide concentration that increases HLA-A2.1 expression by 50% over no peptide control” value with HLA-A2.1 is 15 ΦM. Also, the “Recognition by AAD mouse CTL lines (sensitization of target cells)” value in test [4] was “recognized at higher concentrations than determined for C7A2-WT”.

On to DLMGYIPAV [Peptide 8A], for which the “Cross-recognition of peptide 8V by CTL induced by immunization” value in the test on A2Kb transgenic mice [5] and in the test with AAD transgenic mice [6] was “recognize peptide 8V” throughout. In addition, the “Recognition by human CTL line (lysis of peptide-sensitized target cells)” value in the test on human CTL line ViT2 was “higher levels of lysis than C7A2-WT”. In addition, the “Titration concentration relative to C7A2-WT” value in the test with human CTL line ViT2 (human CTL line) is 10 fold lower concentrations. Besides, the “CTL immune response after immunization” value with A2Kb transgenic mice [1] is recorded as “higher level of response”. Also, the “C7A2-WT concentration for comparable killing, CTL raised against 8A versus CTL raised against C7A2-WT” value in test [7] is given as “more than 100 fold lower”. In addition, on HLA-A2.1, the “Binding to HLA-A2.1 (in words, compared with C7A2-WT)” value was “higher affinity; also recorded: bind at lower concentrations than C7A2-WT”. Besides, the “FI0.5, the peptide concentration that increases HLA-A2.1 expression by 50% over no peptide control” value on HLA-A2.1 is on record as “around 2 ΦM”. The “Recognition by AAD mouse CTL lines (sensitization of target cells)” value in [4] was “able to sensitize target cells in a concentration range around that of C7A2-WT”. In addition, the “CTL response to 8A after immunization” value in the test with AAD transgenic mice [2] (targets pulsed with 8A) is “positive responses to 8A itself”. Further, the “CTL response to C7A2-WT after immunization” value in the test with AAD transgenic mice [2] is “strong responses to C7A2-WT”. Moreover, the “Induction of CTL response by immunization” value in the test with AAD transgenic mice [3] is reported as “able to induce clear CTL responses; also recorded: induced higher levels of lysis”.

(Values after patent publication US7341726B2, “Modified HCV peptide immunogens” (The United States of America as represented by the …, priority 1998, dated 2008).)
